Laboratory results as given in patent US11422132B2, “Peptides and uses thereof for diagnosing and treating myasthenia gravis” (The Regents of the University of California, priority 2016, dated 2022).
“Also recorded” adds a separate entry of the source.

Test system: mAb 334
Test: Western blot of peptide-IChBD fusion proteins probed with mAb 334
Type: binding, rat
Conditions: FIG. 5 Western blots, Torpedo 39MIR single mutants
Description: (§1) Chitin beads adsorbed with peptide-IChBD fusion proteins were run on an SDS-PAGE gel and transferred to a nitrocellulose membrane and assayed with the five mAbs.
(§2) To explore the effects of individual amino acid substitutions between the Torpedo and the human AChR MIR mimics, eight peptides were prepared, each with an amino acid substituted from the human sequence into the Torpedo sequence. The single amino acid substitutions in the Torpedo MIR were: N10K (SEQ ID NO:11), L12F (SEQ ID NO:12), R66K (SEQ ID NO:13), A70D (SEQ ID NO:14), I75V (SEQ ID NO:15), R79H (SEQ ID NO:16), D111Q (SEQ ID NO:17), and K115H (SEQ ID NO:18).

Compared with “SEHETRLVAKLLGGGSLRWNPADYGGIKKIRGSLDYTGK (synthetic main immunogenic region (MIR) peptide) [Mutant N10K, Torpedo 39MIR single mutant (N10K)]”, “SEHETRLVANLFGGGSLRWNPADYGGIKKIRGSLDYTGK (synthetic main immunogenic region (MIR) peptide) [Mutant L12F, Torpedo 39MIR single mutant (L12F)]” is higher in “mAb 334 binding relative to Torpedo 39MIR” value: 0.59 × for the first, 0.88 × for the second.

Going from “SEHETRLVANLLGGGSLKWNPADYGGIKKIRGSLDYTGK (synthetic main immunogenic region (MIR) peptide) [Mutant R66K, Torpedo 39MIR single mutant (R66K)]” to “SEHETRLVANLLGGGSLRWNPADYGGIKKIHGSLDYTGK (synthetic main immunogenic region (MIR) peptide) [Mutant R79H, Torpedo 39MIR single mutant (R79H)]”, the “mAb 334 binding relative to Torpedo 39MIR” value falls from 2.75 × to 2.40 ×.

First: SEHETRLVANLLGGGSLRWNPADYGGIKKIRGSLDYTGH (synthetic main immunogenic region (MIR) peptide) [Mutant K115H, Torpedo 39MIR single mutant (K115H)]
Second: SEHETRLVANLLGGGSLRWNPADYGGIKKIRGSLQYTGK (synthetic main immunogenic region (MIR) peptide) [Mutant D111Q, Torpedo 39MIR single mutant (D111Q)]
The “mAb 334 binding relative to Torpedo 39MIR” value of the first is higher: 0.42 × for the first, 0.02 × for the second.

Same assay, conditions: Table 1, Western blot of FIG. 5, Torpedo 39MIR single mutants

First: SEHETRLVAKLLGGGSLRWNPADYGGIKKIRGSLDYTGK (synthetic main immunogenic region (MIR) peptide) [Mutant N10K, Torpedo 39MIR single mutant (N10K)]
Second: SEHETRLVANLFGGGSLRWNPADYGGIKKIRGSLDYTGK (synthetic main immunogenic region (MIR) peptide) [Mutant L12F, Torpedo 39MIR single mutant (L12F)]
The “mAb 334, fold-change in binding relative to Torpedo 39MIR” value of the first is lower: 0.59 fold-change for the first, 0.88 fold-change for the second.

Going from “SEHETRLVANLLGGGSLKWNPADYGGIKKIRGSLDYTGK (synthetic main immunogenic region (MIR) peptide) [Mutant R66K, Torpedo 39MIR single mutant (R66K)]” to “SEHETRLVANLLGGGSLRWNPADYGGIKKIHGSLDYTGK (synthetic main immunogenic region (MIR) peptide) [Mutant R79H, Torpedo 39MIR single mutant (R79H)]”, the “mAb 334, fold-change in binding relative to Torpedo 39MIR” value falls from 2.75 fold-change to 2.40 fold-change.

Going from “SEHETRLVANLLGGGSLRWNPADYGGIKKIRGSLDYTGH (synthetic main immunogenic region (MIR) peptide) [Mutant K115H, Torpedo 39MIR single mutant (K115H)]” to “SEHETRLVANLLGGGSLRWNPADYGGIKKIRGSLQYTGK (synthetic main immunogenic region (MIR) peptide) [Mutant D111Q, Torpedo 39MIR single mutant (D111Q)]”, the “mAb 334, fold-change in binding relative to Torpedo 39MIR” value falls from 0.42 fold-change to 0.02 fold-change.

Test system: mAb 35
Test: Western blot of peptide-IChBD fusion proteins probed with mAb 35
Type: binding, rat
Design: key to mAb 35, fold-change in binding relative to Torpedo 39MIR: ‘—’ denotes no binding
Conditions: FIG. 5 Western blots, Torpedo 39MIR single mutants
Description: (§3) Chitin beads adsorbed with peptide-IChBD fusion proteins were run on an SDS-PAGE gel and transferred to a nitrocellulose membrane and assayed with the four mAbs.
as §1, §2

First: SEHETRLVAKLLGGGSLRWNPADYGGIKKIRGSLDYTGK (synthetic main immunogenic region (MIR) peptide) [Mutant N10K, Torpedo 39MIR single mutant (N10K)]
Second: SEHETRLVANLFGGGSLRWNPADYGGIKKIRGSLDYTGK (synthetic main immunogenic region (MIR) peptide) [Mutant L12F, Torpedo 39MIR single mutant (L12F)]
The “mAb 35 binding relative to binding to the Torpedo 39MIR” value of the first is lower: 0.29 × for the first, 1.42 × for the second.

Compared with “SEHETRLVANLLGGGSLKWNPADYGGIKKIRGSLDYTGK (synthetic main immunogenic region (MIR) peptide) [Mutant R66K, Torpedo 39MIR single mutant (R66K)]”, “SEHETRLVANLLGGGSLRWNPADYGGIKKIHGSLDYTGK (synthetic main immunogenic region (MIR) peptide) [Mutant R79H, Torpedo 39MIR single mutant (R79H)]” is higher in “mAb 35 binding relative to binding to the Torpedo 39MIR” value: 0.62 × for the first, 1.91 × for the second.

Same assay, conditions: Table 1, Western blot of FIG. 5, Torpedo 39MIR single mutants

Compared with “SEHETRLVAKLLGGGSLRWNPADYGGIKKIRGSLDYTGK (synthetic main immunogenic region (MIR) peptide) [Mutant N10K, Torpedo 39MIR single mutant (N10K)]”, “SEHETRLVANLFGGGSLRWNPADYGGIKKIRGSLDYTGK (synthetic main immunogenic region (MIR) peptide) [Mutant L12F, Torpedo 39MIR single mutant (L12F)]” is higher in “mAb 35, fold-change in binding relative to Torpedo 39MIR” value: 0.29 fold-change for the first, 1.42 fold-change for the second.

First: SEHETRLVANLLGGGSLKWNPADYGGIKKIRGSLDYTGK (synthetic main immunogenic region (MIR) peptide) [Mutant R66K, Torpedo 39MIR single mutant (R66K)]
Second: SEHETRLVANLLGGGSLRWNPADYGGIKKIHGSLDYTGK (synthetic main immunogenic region (MIR) peptide) [Mutant R79H, Torpedo 39MIR single mutant (R79H)]
The “mAb 35, fold-change in binding relative to Torpedo 39MIR” value of the first is lower: 0.62 fold-change for the first, 1.91 fold-change for the second.

With “SEHETRLVANLLGGGSLRWNPADYGGIKKIRGSLDYTGH (synthetic main immunogenic region (MIR) peptide) [Mutant K115H, Torpedo 39MIR single mutant (K115H)]” the “mAb 35, fold-change in binding relative to Torpedo 39MIR” value was “—”.
“SEHETRLVANLLGGGSLRWNPADYGGIKKIRGSLQYTGK (synthetic main immunogenic region (MIR) peptide) [Mutant D111Q, Torpedo 39MIR single mutant (D111Q)]” was tested, and the “mAb 35, fold-change in binding relative to Torpedo 39MIR” value was “—”.

Same assay, conditions: Western blot

In the case of “SEHETRLVANLLGGGSLRWNPADYGGIKKIRGSLDYTGH (synthetic main immunogenic region (MIR) peptide) [Mutant K115H, Torpedo 39MIR single mutant (K115H)]”, the “mAb 35 binding, result in words” value is reported as “did not bind; also recorded: completely abolished”.
“SEHETRLVANLLGGGSLRWNPADYGGIKKIRGSLQYTGK (synthetic main immunogenic region (MIR) peptide) [Mutant D111Q, Torpedo 39MIR single mutant (D111Q)]” was tested, and the “mAb 35 binding, result in words” value was “did not bind”.

Test system: mAb 198
Test: Western blot of peptide-IChBD fusion proteins probed with mAb 198
Type: binding, rat
Conditions: FIG. 5 Western blots, Torpedo 39MIR single mutants
Text: as §3, §1
The Torpedo (SEQ ID NO:9) and human (SEQ ID NO:8) 39MIRs were made by joining the α(1-12), α(65-79), and α(110-115) segments of their respective a subunits with GS linkers. These two MIR mimics were expressed in E. coli as fusion proteins with an IChBD tag to permit peptide collection on chitin beads. These two peptides differ from each other by eight amino acids (FIG. 2). Both mimics were probed with mAb 198. mAb 198, which was derived from rats that had been immunized with human muscle AChR, is a MIR-directed mAb that binds mammalian as well as Torpedo MIR (13,21). It was also able to passively transfer EAMG to rats and binds to both native assembled AChR and to α-subunit fragments in Western blots (22,23). mAb 198 binds to the Torpedo and human MIR peptide mimics in Western blots (FIG. 3). However, mAb 198 binds to the Torpedo mimic about 50 times more strongly than to the human MIR mimic (FIG. 3).
as §2

First: SEHETRLVAKLLGGGSLRWNPADYGGIKKIRGSLDYTGK (synthetic main immunogenic region (MIR) peptide) [Mutant N10K, Torpedo 39MIR single mutant (N10K)]
Second: SEHETRLVANLLGGGSLRWNPADYGGIKKIRGSLQYTGK (synthetic main immunogenic region (MIR) peptide) [Mutant D111Q, Torpedo 39MIR single mutant (D111Q)]
The “mAb 198 binding relative to Torpedo 39MIR” value of the first is higher: 0.82 × for the first, 0.16 × for the second.

Same assay, conditions: Table 1, Western blot of FIG. 5, Torpedo 39MIR single mutants

Going from “SEHETRLVAKLLGGGSLRWNPADYGGIKKIRGSLDYTGK (synthetic main immunogenic region (MIR) peptide) [Mutant N10K, Torpedo 39MIR single mutant (N10K)]” to “SEHETRLVANLFGGGSLRWNPADYGGIKKIRGSLDYTGK (synthetic main immunogenic region (MIR) peptide) [Mutant L12F, Torpedo 39MIR single mutant (L12F)]”, the “mAb 198, fold-change in binding relative to Torpedo 39MIR” value rises from 0.82 fold-change to 0.90 fold-change.

First: SEHETRLVANLLGGGSLKWNPADYGGIKKIRGSLDYTGK (synthetic main immunogenic region (MIR) peptide) [Mutant R66K, Torpedo 39MIR single mutant (R66K)]
Second: SEHETRLVANLLGGGSLRWNPADYGGIKKIHGSLDYTGK (synthetic main immunogenic region (MIR) peptide) [Mutant R79H, Torpedo 39MIR single mutant (R79H)]
The “mAb 198, fold-change in binding relative to Torpedo 39MIR” value of the first is higher: 1.03 fold-change for the first, 0.97 fold-change for the second.

Going from “SEHETRLVANLLGGGSLRWNPADYGGIKKIRGSLDYTGH (synthetic main immunogenic region (MIR) peptide) [Mutant K115H, Torpedo 39MIR single mutant (K115H)]” to “SEHETRLVANLLGGGSLRWNPADYGGIKKIRGSLQYTGK (synthetic main immunogenic region (MIR) peptide) [Mutant D111Q, Torpedo 39MIR single mutant (D111Q)]”, the “mAb 198, fold-change in binding relative to Torpedo 39MIR” value falls from 1.07 fold-change to 0.16 fold-change.

Test system: mAb 132A
Test: Western blot of peptide-IChBD fusion proteins probed with mAb 132A
Type: binding, rat
Conditions: FIG. 5 Western blots, Torpedo 39MIR single mutants
Description: as §3, §1, §2

Going from “SEHETRLVAKLLGGGSLRWNPADYGGIKKIRGSLDYTGK (synthetic main immunogenic region (MIR) peptide) [Mutant N10K, Torpedo 39MIR single mutant (N10K)]” to “SEHETRLVANLFGGGSLRWNPADYGGIKKIRGSLDYTGK (synthetic main immunogenic region (MIR) peptide) [Mutant L12F, Torpedo 39MIR single mutant (L12F)]”, the “mAb 132A binding relative to binding to the Torpedo 39MIR” value (shortened to “mAb 132A binding relative to binding”) rises from 0.03 × to 1.10 ×.

Going from “SEHETRLVANLLGGGSLKWNPADYGGIKKIRGSLDYTGK (synthetic main immunogenic region (MIR) peptide) [Mutant R66K, Torpedo 39MIR single mutant (R66K)]” to “SEHETRLVANLLGGGSLRWNPADYGGIKKIHGSLDYTGK (synthetic main immunogenic region (MIR) peptide) [Mutant R79H, Torpedo 39MIR single mutant (R79H)]”, the “mAb 132A binding relative to binding” value rises from 1.55 × to 1.65 ×.

Going from “SEHETRLVANLLGGGSLRWNPADYGGIKKIRGSLDYTGH (synthetic main immunogenic region (MIR) peptide) [Mutant K115H, Torpedo 39MIR single mutant (K115H)]” to “SEHETRLVANLLGGGSLRWNPADYGGIKKIRGSLQYTGK (synthetic main immunogenic region (MIR) peptide) [Mutant D111Q, Torpedo 39MIR single mutant (D111Q)]”, the “mAb 132A binding relative to binding” value falls from 0.40 × to 0.07 ×.

Same assay, conditions: Table 1, Western blot of FIG. 5, Torpedo 39MIR single mutants

First: SEHETRLVAKLLGGGSLRWNPADYGGIKKIRGSLDYTGK (synthetic main immunogenic region (MIR) peptide) [Mutant N10K, Torpedo 39MIR single mutant (N10K)]
Second: SEHETRLVANLFGGGSLRWNPADYGGIKKIRGSLDYTGK (synthetic main immunogenic region (MIR) peptide) [Mutant L12F, Torpedo 39MIR single mutant (L12F)]
The “mAb 132A, fold-change in binding relative to Torpedo 39MIR” value of the first is lower: 0.03 fold-change for the first, 1.10 fold-change for the second.

Going from “SEHETRLVANLLGGGSLKWNPADYGGIKKIRGSLDYTGK (synthetic main immunogenic region (MIR) peptide) [Mutant R66K, Torpedo 39MIR single mutant (R66K)]” to “SEHETRLVANLLGGGSLRWNPADYGGIKKIHGSLDYTGK (synthetic main immunogenic region (MIR) peptide) [Mutant R79H, Torpedo 39MIR single mutant (R79H)]”, the “mAb 132A, fold-change in binding relative to Torpedo 39MIR” value rises from 1.55 fold-change to 1.65 fold-change.

Compared with “SEHETRLVANLLGGGSLRWNPADYGGIKKIRGSLDYTGH (synthetic main immunogenic region (MIR) peptide) [Mutant K115H, Torpedo 39MIR single mutant (K115H)]”, “SEHETRLVANLLGGGSLRWNPADYGGIKKIRGSLQYTGK (synthetic main immunogenic region (MIR) peptide) [Mutant D111Q, Torpedo 39MIR single mutant (D111Q)]” is lower in “mAb 132A, fold-change in binding relative to Torpedo 39MIR” value: 0.40 fold-change for the first, 0.07 fold-change for the second.
